Assay results reported in ChEMBL document CHEMBL5634077, “Recent advances in 1,2,3- and 1,2,4-triazole hybrids as antimicrobials and their SAR: A critical review” (2023).
In brackets after ≈: the same amount, converted by molar mass.

Key:
Format in all cases: functional
[1] = tested on: Staphylococcus aureus; test: Antibacterial activity against Staphylococcus aureus assessed as reduction in microbial growth incubated for 18 to 24 hrs by serial dilution method; conditions: time 18-24 hrs
[2] = tested on: Staphylococcus aureus; test: Antibacterial activity against methicillin-sensitive Staphylococcus aureus assessed as reduction in microbial growth incubated for 18 to 24 hrs by serial dilution method; conditions: time 18-24 hrs
[3] = tested on: Staphylococcus aureus; test: Antibacterial activity against methicillin-resistant Staphylococcus aureus assessed as reduction in microbial growth incubated for 18 to 24 hrs by serial dilution method; conditions: time 18-24 hrs
[4] = tested on: Staphylococcus epidermidis; test: Antibacterial activity against Staphylococcus epidermidis assessed as inhibition of bacterial growth by microdilution method
[5] = tested on: Staphylococcus aureus; test: Antibacterial activity against Staphylococcus aureus assessed as inhibition of bacterial growth by microdilution method
[6] = tested on: Bacillus subtilis; test: Antibacterial activity against Bacillus subtilis assessed as inhibition of bacterial growth by microdilution method
[7] = tested on: Aspergillus niger; test: Antifungal activity against Aspergillus niger MTCC 8189 assessed as inhibition of fungal growth
[8] = tested on: Bacillus subtilis; test: Antibacterial activity against Bacillus subtilis MTCC 441 assessed as reduction in microbial growth
[9] = tested on: Staphylococcus epidermidis; test: Antibacterial activity against Staphylococcus epidermidis assessed as reduction in microbial growth
[10] = tested on: Escherichia coli; test: Antibacterial activity against Escherichia coli MTCC 16521 assessed as reduction in microbial growth
[11] = tested on: Candida albicans; test: Antifungal activity against Candida albicans MTCC 227 assessed as inhibition of fungal growth

COc1c(N2CCN(C(=O)Cn3cc(CN4C(=O)C(=O)c5cc(F)ccc54)nn3)C(C)C2)c(F)cc2c(=O)c(C(=O)O)cn(C3CC3)c12 (configuration not stated)
MIC [1]: 0.03 µg/mL | MIC [2]: 0.03 µg/mL | MIC [3]: 0.03 µg/mL

Fc1cc(-n2cc(COc3cc(Cl)cc(Cl)c3)nn2)ccc1N1CCOCC1
MIC [4]: 12.5 µg/mL (≈ 29.5 µM) | MIC [5]: 6.25 µg/mL (≈ 14.8 µM) | MIC [6]: 12.5 µg/mL (≈ 29.5 µM)

COc1ccc(NC(=O)NCc2cn(CCCCCn3cc(CNC(=O)Nc4ccc(OC)cc4)nn3)nn2)cc1
MIC [7]: 6 µM (≈ 3.38 µg/mL) | MIC [8]: 6 µM | MIC [9]: 6 µM | MIC [10]: 6 µM | MIC [11]: 6 µM (≈ 3.38 µg/mL)

Cc1cc(=O)oc2cc(OCc3cn(-c4ccc(N5CCOCC5)c(F)c4)nn3)ccc12
MIC [4]: 25 µg/mL (≈ 57.3 µM) | MIC [5]: 25 µg/mL (≈ 57.3 µM) | MIC [6]: 50 µg/mL (≈ 115 µM)

COc1c(N2CCN(C(=O)Cn3cc(CN4C(=O)C(=O)c5cc(Cl)cc(Cl)c54)nn3)C(C)C2)c(F)cc2c(=O)c(C(=O)O)cn(C3CC3)c12 (configuration not stated)
MIC [1]: 0.03 µg/mL | MIC [2]: 0.03 µg/mL | MIC [3]: 0.03 µg/mL

O=C(OCc1cn(-c2ccc(N3CCOCC3)c(F)c2)nn1)c1cc2ccccc2[nH]1
MIC [4]: 3.12 µg/mL (≈ 7.4 µM) | MIC [5]: 25 µg/mL (≈ 59.3 µM) | MIC [6]: 25 µg/mL (≈ 59.3 µM)

O=C(NCc1cn(CCCn2cc(CNC(=O)Nc3ccc(Cl)cc3)nn2)nn1)Nc1ccc(Cl)cc1
MIC [7]: 6 µM (≈ 3.26 µg/mL) | MIC [8]: 6 µM | MIC [9]: 6 µM | MIC [10]: 6 µM | MIC [11]: 6 µM (≈ 3.26 µg/mL)

COc1c(N2CCNC(C)C2)c(F)cc2c(=O)c(C(=O)O)cn(C3CC3)c12 (configuration not stated) [GATIFLOXACIN]
MIC [1]: 0.12 µg/mL | MIC [2]: 0.12 µg/mL | MIC [3]: 0.12 µg/mL

O=C(NCc1cn(CCCCn2cc(CNC(=O)Nc3ccc(Cl)cc3)nn2)nn1)Nc1ccc(Cl)cc1
MIC [7]: 6 µM (≈ 3.34 µg/mL) | MIC [8]: 6 µM | MIC [9]: 6 µM | MIC [10]: 6 µM | MIC [11]: 6 µM (≈ 3.34 µg/mL)

COc1c(N2CCN(C(=O)Cn3cc(CN4C(=O)/C(=N/O)c5cc(C)ccc54)nn3)C(C)C2)c(F)cc2c(=O)c(C(=O)O)cn(C3CC3)c12 (configuration not stated)
MIC [1]: 0.03 µg/mL | MIC [2]: 0.03 µg/mL | MIC [3]: 0.03 µg/mL

Fc1cc(-n2cc(CSc3nc4ccccc4o3)nn2)ccc1N1CCOCC1
MIC [4]: 6.25 µg/mL (≈ 15.2 µM) | MIC [5]: 25 µg/mL (≈ 60.8 µM) | MIC [6]: 12.5 µg/mL (≈ 30.4 µM)

Fc1ccccc1OCc1cn(-c2ccc(N3CCOCC3)c(F)c2)nn1
MIC [4]: 6.25 µg/mL (≈ 16.8 µM) | MIC [5]: 12.5 µg/mL (≈ 33.6 µM) | MIC [6]: 3.12 µg/mL (≈ 8.38 µM)

O=C1CS(=O)(=O)c2ccccc2N1Cc1cn(-c2ccc(N3CCOCC3)c(F)c2)nn1
MIC [4]: 50 µg/mL (≈ 109 µM) | MIC [5]: 12.5 µg/mL (≈ 27.3 µM) | MIC [6]: 3.12 µg/mL (≈ 6.82 µM)

CCO/N=C1/C(=O)N(Cc2cn(CC(=O)N3CCN(c4c(F)cc5c(=O)c(C(=O)O)cn(C6CC6)c5c4OC)CC3C)nn2)c2ccc(C)cc21 (configuration not stated)
MIC [1]: 0.03 µg/mL | MIC [2]: 0.03 µg/mL | MIC [3]: 0.03 µg/mL

COc1ccc(NC(=O)NCc2cn(Cc3cccc(Cn4cc(CNC(=O)Nc5ccc(OC)cc5)nn4)c3)nn2)cc1
MIC [7]: 6 µM (≈ 3.58 µg/mL) | MIC [8]: 6 µM | MIC [9]: 6 µM | MIC [10]: 6 µM | MIC [11]: 6 µM (≈ 3.58 µg/mL)

CN[C@@H]1[C@H](O[C@H]2[C@H](O[C@H]3[C@H](O)[C@@H](O)[C@H](N=C(N)N)[C@@H](O)[C@@H]3N=C(N)N)O[C@@H](C)[C@]2(O)C=O)O[C@@H](CO)[C@H](O)[C@H]1O [STREPTOMYCIN]
MIC [4]: 3.12 µg/mL (≈ 5.36 µM) | MIC [5]: 6.25 µg/mL (≈ 10.7 µM) | MIC [6]: 6.25 µg/mL (≈ 10.7 µM)

Fc1cc(-n2cc(CN3c4ccccc4Sc4ccccc43)nn2)ccc1N1CCOCC1
MIC [4]: 25 µg/mL (≈ 54.4 µM) | MIC [5]: 12.5 µg/mL (≈ 27.2 µM) | MIC [6]: 6.25 µg/mL (≈ 13.6 µM)

CC1(C)S[C@@H]2[C@H](NC(=O)Cc3ccccc3)C(=O)N2[C@H]1C(=O)O [PENICILLIN G]
MIC [4]: 3.12 µg/mL (≈ 9.33 µM) | MIC [5]: 1.56 µg/mL (≈ 4.67 µM) | MIC [6]: 1.56 µg/mL (≈ 4.67 µM)

CO/N=C1/C(=O)N(Cc2cn(CC(=O)N3CCN(c4c(F)cc5c(=O)c(C(=O)O)cn(C6CC6)c5c4OC)CC3C)nn2)c2ccccc21 (configuration not stated)
MIC [1]: 0.03 µg/mL | MIC [2]: 0.03 µg/mL | MIC [3]: 0.03 µg/mL

O=C(NCc1cn(CCCCCn2cc(CNC(=O)Nc3ccc(Cl)cc3)nn2)nn1)Nc1ccc(Cl)cc1
MIC [7]: 6 µM (≈ 3.43 µg/mL) | MIC [8]: 6 µM | MIC [9]: 6 µM | MIC [10]: 6 µM | MIC [11]: 6 µM (≈ 3.43 µg/mL)

O=c1cc(OCc2cn(-c3ccc(N4CCOCC4)c(F)c3)nn2)c2ccccc2o1
MIC [4]: 25 µg/mL (≈ 59.2 µM) | MIC [5]: 50 µg/mL (≈ 118 µM) | MIC [6]: 25 µg/mL (≈ 59.2 µM)

O=C1COc2cc(Br)ccc2N1Cc1cn(-c2ccc(N3CCOCC3)c(F)c2)nn1
MIC [4]: 25 µg/mL (≈ 51.2 µM) | MIC [5]: 25 µg/mL (≈ 51.2 µM) | MIC [6]: 25 µg/mL (≈ 51.2 µM)

Fc1cc(-n2cc(CSc3nc4cc(Br)ccc4s3)nn2)ccc1N1CCOCC1
MIC [4]: 50 µg/mL (≈ 98.7 µM) | MIC [5]: 50 µg/mL (≈ 98.7 µM) | MIC [6]: 25 µg/mL (≈ 49.4 µM)

COc1c(N2CCN(C(=O)Cn3cc(CN4C(=O)C(=O)c5cc(C)ccc54)nn3)C(C)C2)c(F)cc2c(=O)c(C(=O)O)cn(C3CC3)c12 (configuration not stated)
MIC [1]: 0.03 µg/mL | MIC [2]: 0.03 µg/mL | MIC [3]: 0.03 µg/mL
